For series [1] the following is noted: cited from earlier work.
Series [2] in a line: blood concentration in vivo of subjects after implantation or oral dose. Here is the method:
The blood concentrations of subjects were measured per 2 weeks, and the trend in vivo matched the release in vitro despite the few of data points.
It can be seen from the FIG. that the blood concentration in vivo is consistent with the release in vitro trend, thus the treatment in vivo can be adjusted by the release in vitro.
The following table gives a comparison of a relationship between the oral dose and the blood concentration in vivo and another relationship between the released drug of the elastic sheet and the blood concentration in vivo: […]

Series [3] in a line: blood concentration in vivo of New Zealand rabbits after implantation or oral dose. Here is the method:
New Zealand rabbits within 10 weeks after the implantation. […] The blood concentrations of subjects were measured per 2 weeks, and the trend in vivo matched the release in vitro despite the few of data points. […] New Zealand rabbits within 10 weeks after the implantation. […] The blood concentrations of subjects were measured per 2 weeks, and the trend in vivo matched the release in vitro despite the few of data points. […] It can be seen from the FIG. that the blood concentration in vivo is consistent with the release in vitro trend, thus the treatment in vivo can be adjusted by the release in vitro. The following table gives a comparison of a relationship between the oral dose and the blood concentration in vivo and another relationship between the released drug of the elastic sheet and the blood concentration in vivo: Following table 10 gives a comparison of a relationship between the oral dose and the blood concentration in vivo and another relationship between the released drug of the elastic sheet and the blood concentration in vivo: […]

SMILES strings stand for the structures.

For the compound `CCCCC(=O)O[C@H]1CC[C@H]2[C@@H]3CCc4cc(O)ccc4[C@H]3CC[C@]12C` [estradiol valerate], in series [1] (oral administration of 4 mg (2 mg bid)), the “increase of the serum concentration of estradiol (E2)” value is 211.89 ± 57.40 pg/mL. For the same compound, the “absorption effect of vaginal administration relative to oral administration” value in series [1] (vaginal versus oral) is 4 to 8 times.

Take `C[C@]12CC[C@@H]3c4ccc(O)cc4CC[C@H]3[C@@H]1CC[C@@H]2O` [estradiol]: the Blood concentration in series [2] (Oral dose 1000 μg/d) came to 0.1112 nM; in series [2] (Oral dose 2000 μg/d), 0.2558 nM; in series [2] (Oral dose 3000 μg/d), 0.4985 nM; in series [2] (Oral dose 4000 μg/d) it was 0.9893 nM; in series [3] (Oral dose 1000 μg/d) it was 0.1112 nM; in series [3] (Oral dose 2000 μg/d), 0.2558 nM. Moreover, in series [3] (Oral dose 3000 μg/d), the Blood concentration turned out to be 0.4985 nM.

These data come from patent publication US12427106B2, “Elastic sheet with function of re-activating endometrial basal layer in uterine cavity and forming method thereof” (YIPURUN (SHANGHAI) BIOTECHNOLOGY CO., LTD., priority 2018, dated 2025).
